According to ChEMBL document CHEMBL1153224, “Fluorinated piperidine acetic acids as gamma-secretase modulators” (Bioorg Med Chem Lett, 2010):

Key:
Gamma-secretase [1] = assay: Inhibition of gamma secretase in human SHSY5Y cells expressing wild-type APP assessed as inhibition of intracellular amyloid beta-42 by electrochemiluminescent assay; format: cell-based; conditions: sh-sy5y
Gamma-secretase [2] = assay: Inhibition of gamma secretase in human SHSY5Y cells expressing wild-type APP assessed as inhibition of intracellular amyloid beta-40 by electrochemiluminescent assay; format: cell-based; conditions: sh-sy5y
[3] = Plasma clearance in rat at 1 mg/kg, iv and 2 mg/kg, po; format: ADME, organism-based
[4] = Volume of distribution at steady state in rat at 1 mg/kg, iv and 2 mg/kg, po; format: ADME, organism-based; conditions: in vivo, read-out: Vdss
[5] = Half life in rat at 1 mg/kg, iv and 2 mg/kg, po; format: ADME, organism-based; conditions: in vivo
[6] = (§1) Oral bioavailability in rat at 2 mg/kg; format: ADME, organism-based; conditions: in vivo
Brain [7] = assay: Reduction in amyloid beta 42 level in APP-YAC transgenic mouse brain at 20 mg/kg, po after 7 hrs; format: functional; parameters: scale not given: the % may be the effect or the level left
Mus musculus [8] = assay: (§2) Drug level in APP-YAC transgenic mouse brain at 10 mg/kg, po after 7 hrs; format: ADME, organism-based; parameters: dose 10 mg/kg, route oral; conditions: in vivo, 7 h
Mus musculus [9] = assay: (§3) Plasma concentration in APP-YAC transgenic mouse at 10 mg/kg, po after 7 hrs; format: ADME, organism-based; parameters: dose 10 mg/kg, route oral; conditions: in vivo, 7 h
Rattus norvegicus [10] = assay: as §1; format: ADME, organism-based; conditions: in vivo
[11] = as §2; format: ADME, organism-based; parameters: dose 10 mg/kg, route oral; conditions: APP-YAC transgenic, brain, read-out: Drug uptake
[12] = as §3; format: ADME, organism-based; parameters: dose 10 mg/kg, route oral; conditions: APP-YAC transgenic, plasma
Brain [13] = assay: Reduction in amyloid beta 42 level in rat brain after 7 hrs; format: functional, tissue-based
Plasma = assay: Reduction in amyloid beta 42 level in rat plasma after 7 hrs; format: functional, cell-free
Rattus norvegicus [14] = species on record: Rattus norvegicus; assay: Reduction in amyloid beta 42 level in rat after 7 hrs; format: functional, organism-based
[15] = AUC (0 to 24 hrs) in rat at 250 mg/kg, po after 7 days; format: ADME, organism-based; parameters: time < 24 hr, dose 250 mg/kg, route oral; conditions: plasma
Rattus norvegicus [16] = assay: Toxicity in rat assessed as notch -related activity at 250 mg/kg, after 7 days; format: organism-based; parameters: dose 250 mg/kg; conditions: in vivo, 168 h

| Structure (SMILES) | IC50 (Gamma-secretase [1]) | IC50 (Gamma-secretase [2]) | also measured |
| --- | --- | --- | --- |
| CC(C)(C)C#CC(CCC(F)(F)F)N1CCC(F)(F)[C@H](CC(=O)O)[C@H]1c1ccc(C(F)(F)F)cc1 (some centres not stated) | 1500 nM | > 10000 nM |  |
| C[Si](C)(C)CC[C@H](CCC(F)(F)F)N1CC[C@@H](CC(=O)O)C(F)(F)[C@H]1c1ccc(C(F)(F)F)cc1 | 230 nM | > 10000 nM | clearance [3]: 9.1 mL/min/kg; Vd [4]: 5.1 L/kg; half-life [5]: 6.4 h; bioavailability [6]: 20%; Activity (Brain [7]): -64%; Drug uptake (Mus musculus [8]): Not Active; Cp (Mus musculus [9]): Not Active |
| CC(C)CCC(CCC(C)C)N1CCC(F)(F)[C@H](CC(=O)O)[C@H]1c1ccc(C(F)(F)F)cc1 | 880 nM | > 10000 nM |  |
| CC(C)CC[C@H](c1ccc(C(F)(F)F)cc1)N1CC[C@@H](CC(=O)O)C(F)(F)[C@H]1c1ccc(C(F)(F)F)cc1 | 710 nM | > 10000 nM |  |
| CC(C)(C)CC[C@H](CCC(F)(F)F)N1CC[C@@H](CC(=O)O)C(F)(F)[C@H]1c1ccc(C(F)(F)F)cc1 | 490 nM | > 10000 nM |  |
| CC(C)(C)CCC(CCC(F)(F)F)N1CCC(F)(F)[C@H](CC(=O)O)[C@H]1c1ccc(C(F)(F)F)cc1 (some centres not stated) | 600 nM | > 10000 nM | clearance [3]: 3.8 mL/min/kg; Vd [4]: 1.9 L/kg; half-life [5]: 5.1 h; F (Rattus norvegicus [10]): 160%; Activity (Brain [7]): -84%; concentration at 7 h [11]: 580 nM; concentration at 7 h [12]: 1100 nM; EC50 (Brain [13]): 1000 nM; EC50 (Plasma): 3700 nM; IC50 (Rattus norvegicus [14]): Dose-dependent effect; ED50 (Rattus norvegicus [14]; Rattus norvegicus, 7 h): 5 mg/kg; AUC at 24 h [15]: 2100 µM·h; Activity (Rattus norvegicus [16]): Non-toxic |
| CN1CCC(F)(F)[C@H](CC(=O)O)[C@H]1c1ccc(C(F)(F)F)cc1 | > 10000 nM | > 10000 nM |  |
| CC(C)(C)C#CC(CCC(F)(F)F)N1CCC(F)(F)[C@H](CC(=O)O)[C@H]1c1ccc(C(F)(F)F)cc1 (mixture of isomers) | 800 nM | > 10000 nM |  |
| CC(C)(C)CCC(CCC(F)(F)F)N1CCC(F)(F)[C@H](CC(=O)O)[C@H]1c1ccc(C(F)(F)F)cc1 (single isomer, unassigned; enantiomer 1) | 1400 nM | > 10000 nM |  |
| C[Si](C)(C)CCC(CCC(F)(F)F)N1CCC(F)(F)[C@H](CC(=O)O)[C@H]1c1ccc(C(F)(F)F)cc1 (single isomer, unassigned; enantiomer 2) | 640 nM | > 10000 nM |  |
| CC(C)(C)C#CC(CCC(F)(F)F)N1CCC(F)(F)[C@H](CC(=O)O)[C@H]1c1ccc(C(F)(F)F)cc1 (single isomer, unassigned; enantiomer 2) | 390 nM | > 10000 nM |  |
